Data on 9 molecules can be found in article PMC3277506, “Extra-Renal Elimination of Uric Acid via Intestinal Efflux Transporter BCRP/ABCG2” (PLoS ONE, 2012).

Read-outs that look alike come from different tables or passages of the source.

For data set [1], the system named is Caco-2 cells. The data set can be described thus: Bidirectional transcellular transport of [14C]uric acid in Caco-2 cells. The format is in vitro ADME, human. The conditions noted are these: elacridar 2 µM, Ko143 1 µM, verapamil 100 µM, MK571 10 µM. Here is the method:
Caco-2 cells were obtained from the American Type Culture Collection (Rockville, MD). Caco-2 cells were cultured in Dulbecco's modified Eagle's medium (D-MEM) (Invitrogen, Carlsbad, CA) supplemented with 10% (v/v) fetal bovine serum (Invitrogen), 100 units/mL benzylpenicillin, 100 µg/mL streptomycin, 1% (v/v) MEM non-essential amino acid solution (Invitrogen) at 37°C under an atmosphere of 5% CO2 in air. For bidirectional transport studies, Caco-2 cells were cultured on Transwell filter membrane inserts (BD Falcon, surface area 0.9 cm^2 and pore size 3 µm) at a density of 6.4×10^4 cells/cm^2 for 21 days before use for each experiment. […] Inhibitor was added to only apical side. Transport of [^14C]uric acid was measured in two directions, namely apical (AP)-to-basal (BL) and BL-to-AP directions. An aliquot of transport buffer was obtained from the donor side at 5 min for measurement of initial concentration, and from the receiver side at 30, 60, 90 and 120 min. Transport studies were performed at 37°C and pH 7.4.
The apparent permeability (Papp, cm/sec) of [^14C]uric acid across the cell monolayer was calculated using the following equation: [drawing 4] where Q is the amount of [^14C]uric acid transported over time t. Cd is the initial concentration in the donor side and A is the surface area of membrane.

Data set [2] has as its target T1, rBcrp (Rattus norvegicus, UniProt Q80W57).
T1 sequence (Q80W57 1-657): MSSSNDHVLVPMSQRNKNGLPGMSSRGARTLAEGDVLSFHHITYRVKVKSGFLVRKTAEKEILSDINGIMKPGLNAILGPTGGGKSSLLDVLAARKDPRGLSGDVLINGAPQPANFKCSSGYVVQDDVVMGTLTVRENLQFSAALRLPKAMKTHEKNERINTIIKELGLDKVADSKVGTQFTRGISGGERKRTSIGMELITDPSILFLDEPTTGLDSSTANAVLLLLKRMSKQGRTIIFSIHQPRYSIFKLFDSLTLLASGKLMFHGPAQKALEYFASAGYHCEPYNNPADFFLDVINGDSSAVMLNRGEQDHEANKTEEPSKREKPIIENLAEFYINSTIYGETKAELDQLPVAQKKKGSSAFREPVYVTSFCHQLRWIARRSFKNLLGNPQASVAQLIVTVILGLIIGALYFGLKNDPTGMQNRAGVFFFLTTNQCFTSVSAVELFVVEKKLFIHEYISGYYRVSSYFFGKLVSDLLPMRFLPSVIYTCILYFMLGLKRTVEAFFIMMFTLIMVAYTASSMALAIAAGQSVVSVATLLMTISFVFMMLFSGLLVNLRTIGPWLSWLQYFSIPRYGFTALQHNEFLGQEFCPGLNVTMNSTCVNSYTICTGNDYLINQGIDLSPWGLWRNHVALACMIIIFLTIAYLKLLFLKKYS
The data set can be described thus: [14C]uric acid uptake by rBcrp-expressing membrane vesicles. It counts as biochemical. Also noted: purchased GenoMembrane Inc. (Yokohama, Japan); host or cells: Sf9 cells. The following applies: [14C]uric acid uptake by vesicles, inhibitor concentrations only in Fig. 2C. Here is the method: hBCRP/rBcrp, hMRP2/rMrp2, or hMDR1-expressing membrane vesicles prepared from Sf9 cells were purchased from GenoMembrane Inc. (Yokohama, Japan). Uptake experiments were conducted as described previously. Briefly, after a pre-incubation for 5 min at 37°C, membrane vesicles (50 µg protein/50 µL final reaction volume) were incubated for 5 min at 37°C in the presence of 4 mM ATP or AMP in assay buffer (1 M KCl, 1 M MgCl2, and 100 mM MOPS-Tris, pH 7.0) containing [^14C]uric acid (1 µCi/mL). The uptake reaction was terminated by adding 1 mL ice-cold washing buffer (1 M KCl, and 100 mM MOPS-Tris, pH 7.0) to the membrane solution, and the mixture was rapidly filtered through a nitrocellulose filter (0.45 µm pore size, Millipore, Bedford, MA). The filters were washed twice with 5 mL ice-cold washing buffer. The filters were dried and dissolved in Clearsol-I for quantitation of radioactivity.

The conditions of data set [3]: cited from earlier work.
In data set [4] the target is T1, rBcrp. The data set can be described thus: Effect of elacridar on intestinal secretion of uric acid, in situ intestinal closed loop method, oxonate-treated rats. The format is in vivo. The following applies: for Intestinal secretory clearance of uric acid, % of that in elacridar-untreated rats: 10 µM elacridar (Fig. 1A); for Intestinal secretory clearance of uric acid in the presence of elacridar: 10 µM elacridar, oxonate-treated rats. Here is the method:
We evaluated intestinal secretion of endogenous uric acid according to the method described previously, with some modifications. Rats were anesthetized with 50% urethane and treated with oxonate by the same method as in the in vivo animal study described above. Intestinal closed loops were made at different segments: jejunum (10 cm), ileum (10 cm), and colon (3–5 cm). Phosphate-buffered solution (PB, 0.075 M NaH2PO4 - 0.075 M Na2HPO4, pH 6.5) or inhibitor-containing PB was injected into the intestinal loop. After 60 min, the remaining luminal content in each loop was washed out and collected for quantitation. Blood was obtained from the jugular vein at 1, 20, 40 and 60 min. Plasma was obtained by centrifugation and used for quantitation.
The following equation was used to calculate intestinal secretory clearance (µL/min/cm loop) and estimated total intestinal secretory clearance (CLintestine, estimated) (mL/min): [drawing 1] [drawing 2] [drawing 3] where A is the amount of uric acid secreted into the intestinal lumen of each loop for 60 min, L is the length of the intestine, and AUC is area under the plasma concentration-time curve.

Substrate in data set [5]: O=c1[nH]c(=O)c2[nH]c(=O)[nH]c2[nH]1
The data set can be described thus: [14C]uric acid uptake by rBcrp-expressing membrane vesicles. It counts as biochemical, rat. The following applies: other: ATP-dependent uptake, maximum uric acid concentration 5 mM; pH 7.0; 37.0 °C.

Consider `COc1ccc2c3c([nH]c2c1)[C@H](CC(C)C)N1C(=O)[C@H](CCC(=O)OC(C)(C)C)NC(=O)[C@@H]1C3` [Ko143, reference compound], for which, in data set [1], the “Effect on polarized transport of uric acid across Caco-2 cell monolayer” value (from here on “Effect on polarized transport”) was “significantly reduced”. In addition, the “Inhibition of rBcrp-mediated transport of uric acid” value (from here on “Inhibition”) in data set [2] was “strongly inhibited”.
As for `C[C@]12CC[C@@H]3c4ccc(OS(=O)(=O)O)cc4CC[C@H]3[C@@H]1CCC2=O` [estrone-3-sulfate], the “Inhibition” value in data set [2] was “strongly inhibited”.
Take `CO[C@H]1/C=C/O[C@@]2(C)Oc3c(C)c(O)c4c(O)c(c(/C=N/N5CCN(C)CC5)c(O)c4c3C2=O)NC(=O)/C(C)=C\C=C\[C@H](C)[C@H](O)[C@@H](C)[C@@H](O)[C@@H](C)[C@H](OC(C)=O)[C@@H]1C` [rifampicin]: the “Inhibition” value in data set [2] was “moderately”.
In the case of `CCCCc1nc(Cl)c(CO)n1Cc1ccc(-c2ccccc2-c2nn[nH]n2)cc1` [losartan], in data set [3] (drugs in clinical use), the “Effect on SUA level” value is recorded as “decrease”.
With `O=C(O)c1ccccc1O` [salicylic acid], the figures for the “Effect on SUA level” value in data set [3] (high dose) and in data set [3] (low dose) were “decrease” and “increase”, respectively. Moreover, in data set [2], the “Inhibition” value was “not affected”.
Consider `CC(C(=O)O)c1cccc(C(=O)c2ccccc2)c1` (centres unmarked) [ketoprofen], for which, in data set [2], the “Inhibition” value was “not affected”.
With `COc1cc2c(cc1OC)CN(CCc1ccc(NC(=O)c3cccc4c(=O)c5cccc(OC)c5[nH]c34)cc1)CC2` [elacridar], in data set [1], the “Effect on polarized transport” value was “significantly reduced”. For the same molecule, the “Intestinal secretory clearance of uric acid, % of that in elacridar-untreated rats” value in data set [4] (colon) is recorded as 30%; in data set [4] (ileum), 52%; in data set [4] (jejunum) it was 55%. Moreover, the “Intestinal secretory clearance of uric acid in the presence of elacridar” value in data set [4] (colon) was found to be 0.23±0.04 µL/min/cm loop; in data set [4] (ileum) it was 0.82±0.12 µL/min/cm loop; in data set [4] (jejunum) it was 0.27±0.04 µL/min/cm loop. For the same molecule, the “Ileal secretion of uric acid, % of the control” value in data set [4] (ileum, 0.1 µM elacridar (Fig. 3A)) was found to be 53%. The “Inhibition” value in data set [2] was “strongly inhibited”.
Regarding `CN(C)C(=O)CCSC(SCCC(=O)O)c1cccc(/C=C/c2ccc3ccc(Cl)cc3n2)c1` (centres unmarked) [MK571, reference compound], the “Effect on polarized transport” value in data set [1] is reported as “significantly reduced”.

B1: rBcrp (Rattus norvegicus) (protein)
chain: T1 sequence (Q80W57 1-657)
notes: purchased GenoMembrane Inc. (Yokohama, Japan); host or cells: Sf9 cells
With B1, the Km in data set [5] came out at 12.5 ± 0.77 mM.

The term Km denotes the concentration of substrate that gives half-maximal velocity.
